Earlier results, collected in patent publication EP0315648B1 (THE UPJOHN COMPANY, priority 1986, dated 1988).

Details: Hildebrand solubility coefficient of the solvent (scale of Vaughn)

Row | Compound | HSC
1 | CCCCCCCC/C=C\CCCCCCCCO [oleyl alcohol] | 9.8
2 | CC(O)CO (centres unmarked) [propylene glycol] | 14
